IC50 and inhibition data for eleven molecules are collected here from ChEMBL document CHEMBL2321868, “The discovery of novel potent trans-3,4-disubstituted pyrrolidine inhibitors of the human aspartic protease renin from in silico three-dimensional (3D) pharmacophore searches” (J Med Chem, 2013).

The structures appear in SMILES notation.

One test concerns the target T1, Renin (Homo sapiens, UniProt P00797).
T1 sequence (P00797 whole entry): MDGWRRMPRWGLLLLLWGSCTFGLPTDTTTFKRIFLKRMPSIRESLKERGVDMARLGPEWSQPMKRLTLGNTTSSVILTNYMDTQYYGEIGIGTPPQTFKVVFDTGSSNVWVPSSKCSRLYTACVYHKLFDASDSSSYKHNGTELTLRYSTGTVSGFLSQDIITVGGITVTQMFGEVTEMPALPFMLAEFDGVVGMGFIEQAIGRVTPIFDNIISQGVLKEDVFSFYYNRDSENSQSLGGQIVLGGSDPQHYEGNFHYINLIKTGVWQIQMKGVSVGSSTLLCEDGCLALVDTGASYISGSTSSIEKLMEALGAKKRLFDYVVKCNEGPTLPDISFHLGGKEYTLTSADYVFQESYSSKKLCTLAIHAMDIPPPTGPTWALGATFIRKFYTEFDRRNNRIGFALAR
Briefly: Inhibition of human recombinant renin expressed in CHO cells using RE(EDANS)IHPFHLVIHTK(Dabcyl)R as substrate incubated for 1 hr prior to substrate addition measured after 2 hrs by FRET-based enzymatic assay.

Test [1] is described as follows: Inhibition of human recombinant pepsin A expressed in Escherichia coli using Dabcyl-E-R-Nle-F-L-S-F-P-EDANS as substrate incubated for 1 hr prior to substrate addition measured after 1 hr by FRET-based enzymatic assay.
The target in another test is Cathepsin D (Homo sapiens, UniProt P07339). Briefly: Inhibition of human recombinant cathepsin-D expressed in baculovirus-infected insect sf9 cells using Ac- E-D(EDANS)-KPILFFRLG-K(Dabcyl)-E-Amid as substrate incubated for 1 hr prior to substrate addition measured after 1 hr by FRET-based enzymatic assay.
Another test addresses T2, Gastricsin (Homo sapiens, UniProt P20142).
T2 sequence (P20142 whole entry): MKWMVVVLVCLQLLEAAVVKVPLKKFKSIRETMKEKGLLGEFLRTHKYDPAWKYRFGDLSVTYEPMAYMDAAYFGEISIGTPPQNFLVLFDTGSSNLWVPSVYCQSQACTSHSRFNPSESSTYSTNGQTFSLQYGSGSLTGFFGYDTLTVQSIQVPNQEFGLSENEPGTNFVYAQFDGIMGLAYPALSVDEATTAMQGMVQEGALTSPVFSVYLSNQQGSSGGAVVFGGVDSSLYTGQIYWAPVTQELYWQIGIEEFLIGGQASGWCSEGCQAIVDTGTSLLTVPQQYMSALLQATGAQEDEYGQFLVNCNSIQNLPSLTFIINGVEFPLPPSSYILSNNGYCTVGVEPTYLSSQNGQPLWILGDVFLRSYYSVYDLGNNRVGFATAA
Briefly: Inhibition of human recombinant pepsin C expressed in Escherichia coli using Dabcyl-E-R-Nle-F-L-S-F-P-EDANS as substrate incubated for 1 hr prior to substrate addition measured after 1 hr by FRET-based enzymatic assay.

In a further test the target is T3, Cathepsin E (Homo sapiens, UniProt P14091).
T3 sequence (P14091 whole entry): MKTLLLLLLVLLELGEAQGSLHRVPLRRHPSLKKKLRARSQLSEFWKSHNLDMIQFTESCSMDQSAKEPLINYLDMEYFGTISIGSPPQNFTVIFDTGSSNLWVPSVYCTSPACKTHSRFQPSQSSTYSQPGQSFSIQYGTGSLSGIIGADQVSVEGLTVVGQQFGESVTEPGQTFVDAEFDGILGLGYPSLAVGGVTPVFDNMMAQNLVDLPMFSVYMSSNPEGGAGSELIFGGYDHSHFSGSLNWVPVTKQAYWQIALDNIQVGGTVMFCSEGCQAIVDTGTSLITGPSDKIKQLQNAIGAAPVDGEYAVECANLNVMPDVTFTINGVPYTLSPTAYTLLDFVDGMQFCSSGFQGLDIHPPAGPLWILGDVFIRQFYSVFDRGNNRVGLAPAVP
Briefly: Inhibition of human recombinant cathepsin-E expressed in Escherichia coli using Ac- E-D(EDANS)-KPILFFRLG-K(Dabcyl)-E-Amid as substrate incubated for 1 hr prior to substrate addition measured after 1 hr by FRET-based enzymatic assay.

The next test deals with T4, Renin (Homo sapiens) (UniProt P00797).
T4 sequence (whole entry): T1 sequence (P00797 whole entry)
Briefly: Inhibition of human recombinant renin expressed in CHO cells using RE(EDANS)IHPFHLVIHTK(Dabcyl)R as substrate at 10 uM incubated for 1 hr prior to substrate addition measured after 2 hrs by FRET-based enzymatic assay.

Sequence of Cathepsin D (P07339 65-162 limits assumed): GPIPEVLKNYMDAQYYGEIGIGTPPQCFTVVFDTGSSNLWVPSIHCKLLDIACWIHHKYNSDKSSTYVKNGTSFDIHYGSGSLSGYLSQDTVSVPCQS
Sequence of Cathepsin D (P07339 169-412 limits assumed): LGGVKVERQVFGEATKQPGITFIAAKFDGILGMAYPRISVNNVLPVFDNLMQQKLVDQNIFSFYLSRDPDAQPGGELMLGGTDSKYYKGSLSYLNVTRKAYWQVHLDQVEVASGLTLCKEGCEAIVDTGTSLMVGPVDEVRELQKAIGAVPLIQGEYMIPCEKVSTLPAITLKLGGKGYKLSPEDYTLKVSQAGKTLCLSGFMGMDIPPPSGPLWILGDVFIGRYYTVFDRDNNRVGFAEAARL

As for `COCCCOc1cc(C(=O)N(CC2CNCC2Cc2ccccc2)c2ccccc2)ccc1OC` (racemic), on Renin, the half-maximal inhibitory concentration (IC50) was 1.9 µM.

Take `Clc1ccc(N(C[C@@H]2CNC[C@H]2Cc2ccccc2)c2ccccc2)cc1`: the IC50 in test [1] turned out to be 4.5 µM; on Cathepsin D it was 11 µM; at Renin, 7.6 µM; on Gastricsin, 29 µM; at Cathepsin E, 11 µM.

For `Clc1ccc(N(CC2CNCC2Cc2ccccc2)c2ccccc2)cc1` (racemic), at Renin, the IC50 is 14 µM.

Consider `Clc1ccc(N(Cc2ccccc2)CC2CNCC2Cc2ccccc2)cc1` (racemic), for which the IC50 at Renin amounted to 4.1 µM.

With `COCCCOc1cc(CN(CC2CNCC2Cc2ccccc2)C(C)C)ccc1OC` (racemic), the half-inhibitory concentration (IC50) on Renin amounted to 7.7 µM.

As for `COCCCOc1cc(CN(CC2CNCC2Cc2ccccc2)c2ccc(Cl)cc2)ccc1OC` (racemic), the IC50 at Renin is 9.8 µM.

On to `Clc1ccc(N(C[C@H]2CNC[C@@H]2Cc2ccccc2)c2ccccc2)cc1`, for which the IC50 on Renin was 18 µM.

Take `COCCCOc1cc(C(=O)N(CC2CNCC2Cc2ccccc2)c2ccc(Cl)cc2)ccc1OC` (racemic): the IC50 at Renin worked out at 1.7 µM.

In the case of `c1ccc([C@H]2CCNC[C@@H]2OCc2ccc3ccccc3c2)cc1`, the inhibition at Renin (Homo sapiens) turned out to be 34%.

In the case of `COCCCOc1cc(C(=O)N(CC2CNCC2Cc2ccccc2)C(C)C)ccc1OC` (racemic), the IC50 at Renin came to 0.45 µM.

Consider `COCCCOc1cc(C(=O)N(C[C@H]2CNC[C@@H]2Cc2ccccc2)C(C)C)ccc1OC`, for which the IC50 on Renin is 2.7 µM.
